From US20260241021A1 (priority 2023, published 2026)

Columns and labels:
[1] = biological target: cathepsin B (Homo sapiens, UniProt P07858); assay: Digestion and exatecan release of linker-payloads by cathepsin B cleavage (LC-UV); type: in vitro ADME; settings: 5 μg linker-payload, 10 μg/mL activated cathepsin B, 37° C., sampled for 24 hours
Experimental: This study was conducted to evaluate how the DCBO and BCN in the linker-payloads would affect drug release. The study also included the linker-payloads with the two-amino acid spacer “GG” in the digestion comparison. The study was evaluated by digesting the linker-payloads using cathepsin B and quantifying the released exatecan by LC-UV. To perform exatecan release test by cathepsin B cleavage, 5 μg of the linker-payloads were treated with 10 μg/mL of activated cathepsin B in digestion buffer for payload cleavage at 37° C. The reaction mixture was sampled every two hours for 24 hours, and the amounts of released exatecan and residual linker-payload were analyzed by LC-UV. A C18 column (Symmetry 5 μm, 2.1×150 mm Waters) was applied for this analysis. Samples were eluted with ACN/water gradient at a flow rate of 0.5 mL/min, and the chromatogram was monitored at 263 nm.

[2] = tested on: SKBR-3 breast cancer cells; assay: Cytotoxicity of linker-payloads (CellTiter-Glo, six days); type: cell-based, human; settings: SKBR-3, six days
Text: Human SKBR-3 breast cancer cells (ATCC, HTB-30) were used in this study. […] The IC50 data for the different linker payloads were similar.

[3] = tested on: Capan-1 pancreatic cancer cells; settings: Capan-1, 6 days
Experimental: (§1) Tumor cells (2×10^3 cells/well) were seeded in 96 well plates and treated with ADCs for 6 days. CellTiter-Glo® Reagent (Cat. G7572, Promega) was prepared by adding CellTiter-Glo® Buffer into lyophilized CellTiter-Glo® Substrate. Reconstituted CellTiter-Glo® Reagent was added into the culture medium with cells at 1:1 ratio after treatment for 6 days. The plate was placed on an orbital shaker for 2 minutes to induce cell lysis and then incubated at room temperature for 10 minutes before recording the luminescent signals by Luminometer. The viability of each treated sample was compared to the non-treated control. The IC50 of each ADC was calculated by Prism.

[4] = tested on: NCI-N87 gastric cells; settings: NCI-N87, 6 days
Experimental: as §1

Compound	amount of released exatecan [1] [%]	percentage of linker-payloads existed (% linker-payload) after cathepsin B cleavage reaction [1] [%]	IC50 [2] [nM]	IC50 [3] [nM]	IC50 [4] [nM]	IC50 ([2]; Homo sapiens, SK-BR-3, 144 h) [nM]
BCN-GGVA-Hydra-PAB-PEG24-Exatecan [DL-8]	52.6	4	138			
TX05-DBCO-PEG24-Exatecan ADC [ADC-4]				71.8	5.51	
CC[C@@]1(O)C(=O)OCc2c1cc1n(c2=O)Cc2c-1nc1cc(F)c(C)c3c1c2[C@@H](NC(=O)OC(C(=O)NCCOCCOCCOCCOCCOCCOCCOCCOCCOCCOCCOCCOCCOCCOCCOCCOCCOCCOCCOCCOCCOCCOCCOCCOC)c1ccc(NC(=O)[C@H](C)NC(=O)[C@@H](NC(=O)OC[C@@H]2[C@@H]4CCC#CCC[C@@H]42)C(C)C)cc1)CC3 (mixture of isomers) [DL-6, BCN-VA-Hydra-PAB-PEG24-Exatecan]		14				221
CC[C@@]1(O)C(=O)OCc2c1cc1n(c2=O)Cc2c-1nc1cc(F)c(C)c3c1c2[C@@H](NC(=O)OC(C(=O)NCCOCCOCCOCCOCCOCCOCCOCCOCCOCCOCCOCCOCCOCCOCCOCCOCCOCCOCCOCCOCCOCCOCCOCCOC)c1ccc(NC(=O)[C@H](C)NC(=O)[C@@H](NC(=O)CCC(=O)N2Cc4ccccc4C#Cc4ccccc42)C(C)C)cc1)CC3 (mixture of isomers) [DL-5, DBCO-VA-Hydra-PAB-PEG24-Exatecan]		75				244
CC[C@@]1(O)C(=O)OCc2c1cc1n(c2=O)Cc2c-1nc1cc(F)c(C)c3c1c2[C@@H](NC(=O)OC(C(=O)NCCOCCOCCOCCOCCOCCOCCOCCOCCOCCOCCOCCOCCOCCOCCOCCOCCOCCOCCOCCOCCOCCOCCOCCOC)c1ccc(NC(=O)[C@H](C)NC(=O)[C@@H](NC(=O)CNC(=O)CNC(=O)CCC(=O)N2Cc4ccccc4C#Cc4ccccc42)C(C)C)cc1)CC3 (mixture of isomers) [DL-7, DBCO-GGVA-Hydra-PAB-PEG24-Exatecan]		66				96.7
TX05-MCCA-PEG24-Exatecan ADC [ADC-3]				64.6	2.9	
